Test results as given in patent US20100056636A1, “N-Substituted-P-Menthane-3-Carboxamide and Uses Thereof” (priority 2006, published 2010).
Values belong to the compound of their own block, whether it stands above or below them.

Columns and labels:
[1] = test system: panel of experienced flavourists; experiment: Hard boiled sweets containing cold receptor stimulant, evaluated by a panel of experienced flavourists; format: in vivo, human; conditions: for strength of products A, B and C relative to each other: hard boiled sweets: A 50 ppm WS-3, B 5 ppm example 1, C 2.5 ppm example 2
Procedure: The sweets were prepared according to the following procedure. Sugar, water and glucose syrup are mixed and boiled till 146° C. The mix is cooled to 120° C., the cold receptor stimulant is added and carefully mixed in. The mix is poured on a cooling table and folded in and molded on a roller.
The sweets prepared were evaluated by a panel of experienced flavourists.

small group of panelists = experiment: Panel tasting of aqueous solutions: cooling intensity matched to a solution of menthol at 2 ppm; format: in vivo, human; conditions: tasted
panel of flavourists = experiment: Comparative sensorial evaluation: aqueous solutions tasted by a panel of flavourists; format: in vivo, human
Procedure: Four aqueous solutions were prepared: A. […] 20 ppm WS-3 dissolved in solution A; and D. 2 ppm WS-3 dissolved in solution A. These solutions were tasted and evaluated by a panel of flavourists. […]

[2] = cited from earlier work

strength of products A, B and C relative to each other [1]: comparable
Compound: CC1CCC(C(C)C)C(C(=O)NCC(O)c2ccccc2)C1 (stereo not shown) [Example 1, 2-isopropyl-5-methyl-cyclohexanecarboxylic acid (2-hydroxy-2-phenylethyl)-amide]
location of effect and aftertaste ([1]; Product B: 5 ppm product prepared in example 1): in the whole mouth and has a tingling-cool aftertaste
sensory description of hard boiled sweet ([1]; Product B: 5 ppm product prepared in example 1, A = 50 ppm WS-3): “giving a cold sensation which is not irritating” and “much more longlasting than A”
Concentration with cooling intensity similar to or slightly higher than that of a solution of menthol at 2 ppm (small group of panelists): 0.005 ppm
sensory description of solution (panel of flavourists; Example 3, solution B: 2 ppm product of example 1 dissolved in 20 ppm menthol aqueous solution): “high initial cooling burst”, “long-lasting cooling”, “cold perception in whole mouth”, “some hotness”
strength of solution B relative to solution D (panel of flavourists; Example 3: 2 ppm product of example 1 versus 2 ppm WS-3, both in 20 ppm menthol solution): much stronger
strength of solution B relative to solution C (panel of flavourists; Example 3: 2 ppm product of example 1 versus 20 ppm WS-3, both in 20 ppm menthol solution): comparable strength

strength of products A, B and C relative to each other [1]: comparable
Compound: CC1CCC(C(C)C)C(C(=O)NCCc2ccccc2)C1 (stereo not shown) [Example 2, 2-isopropyl-5-methyl-cyclohexanecarboxylic acid phenylethyl-amide]
sensory description of hard boiled sweet ([1]; Product C: 2.5 ppm product prepared in example 2): “slow release cooling”, “giving a cold effect in the whole mouth”, “tingling pain sensation enhancing the cooling effect and “very longlasting”
Concentration with cooling intensity similar to or slightly higher than that of a solution of menthol at 2 ppm (small group of panelists): 0.2 ppm
sensory description of solution (panel of flavourists; Example 4, solution B: 1 ppm product of example 2 dissolved in 20 ppm menthol aqueous solution): “cold perception with a pain sensation”, “aggressive, long-lasting cooling”, “almost noxious cold”, “slightly tingling”
strength of solution B relative to solution D (panel of flavourists; Example 4: 1 ppm product of example 2 versus 2 ppm WS-3, both in 20 ppm menthol solution): much stronger
strength of solution B relative to solution C (panel of flavourists; Example 4: 1 ppm product of example 2 versus 20 ppm WS-3, both in 20 ppm menthol solution): comparable strength

Compound: CCOc1ccccc1CCNC(=O)C1CC(C)CCC1C(C)C (stereo not shown) [Example 5, N-(2-ethoxyphenethyl)-2-isopropyl-5-methylcyclohexane-carboxamide]
Concentration with cooling intensity similar to or slightly higher than that of a solution of menthol at 2 ppm (small group of panelists): 0.002 ppm

Compound: CC1CCC(C(C)C)C(C(=O)N[C@H]2C[C@H]2c2ccccc2)C1 (stereo partly drawn) [Example 6, 2-isopropyl-5-methyl-N-((1S,2S)-2-phenylcyclopropyl)-cyclohexanecarboxamide]
Concentration with cooling intensity similar to or slightly higher than that of a solution of menthol at 2 ppm (small group of panelists): 0.1 ppm

strength of products A, B and C relative to each other [1]: comparable
Compound: CCNC(=O)C1CC(C)CCC1C(C)C (stereo not shown) [WS-3, N-Ethyl-p-menthane-3-carboxamide, reference compound]
sensory description of hard boiled sweet ([1]; Product A (control): 50 ppm WS-3): “giving coolness and a cold perception” and “having an immediate cooling effect” and “not longlasting”
feeling in the throat ([1]; Product A: hard boiled sweet, dosage of 50 ppm WS-3): irritating feeling in the throat
Concentration with cooling intensity similar to or slightly higher than that of a solution of menthol at 2 ppm (small group of panelists): 1.5 ppm
sensory description of solution, compared with solution B (panel of flavourists; Example 3, solution C: 20 ppm WS-3 in 20 ppm menthol solution, B = 2 ppm product of example 1 in 20 ppm menthol): “more neutral cold perception than B”, “less aggressive cooling than B”, “less long-lasting cooling than B”
sensory description of solution, compared with solution B (panel of flavourists; Example 3, solution D: 2 ppm WS-3 in 20 ppm menthol solution, B = 2 ppm product of example 1 in 20 ppm menthol): “more neutral cold perception than B”, “less aggressive cooling than B”, “less long-lasting cooling than B”
sensory description of solution, compared with solution B (panel of flavourists; Example 4, solution C: 20 ppm WS-3 in 20 ppm menthol solution, B = 1 ppm product of example 2 in 20 ppm menthol): “more neutral cold perception than B”, “less aggressive cooling than B”, “less long-lasting cooling than B”
sensory description of solution, compared with solution B (panel of flavourists; Example 4, solution D: 2 ppm WS-3 in 20 ppm menthol solution, B = 1 ppm product of example 2 in 20 ppm menthol): “more neutral cold perception than B”, “less aggressive cooling than B”, “less long-lasting cooling than B”

Compound: CC1CCC(C(C)C)C(O)C1 (stereo not shown) [menthol, reference compound]
Concentration with cooling intensity similar to or slightly higher than that of a solution of menthol at 2 ppm (small group of panelists): 2.0 ppm
sensory description of solution (panel of flavourists; solution A: 20 ppm menthol in water): “cooling”

Compound: Ethyl 3-(p-menthane-3-carboxamido)acetate [(1R,3R,4S)-WS-5]
perceived cooling relative to WS-3 ([2]; reported in US Patent Application No. 20050222256): 2.5-3.0 times

Compound: Ethyl 3-(p-menthane-3-carboxamido)acetate [WS-5]
coolness relative to WS-3 ([2]; known): significantly cooler than WS-3

Compound: N-(3,4-dimethylphenethyl)-2-isopropyl-5-ethylcyclo-hexanecarboxamide [Example 7]
Concentration with cooling intensity similar to or slightly higher than that of a solution of menthol at 2 ppm (small group of panelists): 0.002 ppm
